Active and inactive are the calls of the source. No cut-off for these calls is given here.
Experiments:
[1] = Antioxidant activity assessed as ABTS radical scavenging activity; assay type: functional
[2] = Selectivity index, ratio of IC50 for equine serum BuChE using butyrylthiocholine chloride as substrate to IC50 for electric eel AChE using acetylthiocholine iodide as substrate incubated for 15 to 20 mins by Ellman's method; conditions: time 15-20 min
[3] = target: Acetylcholinesterase (Electrophorus electricus, UniProt O42275); experiment: Inhibition of electric eel AChE using acetylthiocholine iodide as substrate incubated for 15 to 20 mins by Ellman's method
[4] = target: Cholinesterase (Equus caballus, UniProt P81908); experiment: Inhibition of equine serum BuChE using butyrylthiocholine chloride as substrate incubated for 15 to 20 mins by Ellman's method; assay type: cell-free
[5] = target: Acetylcholinesterase (Electrophorus electricus) (UniProt O42275); experiment: Mixed type inhibition of electric eel AChE assessed as decrease in Vmax at 3.2 to 12.8 uM using varying levels of acetylthiocholine iodide as substrate by Lineweaver-Burk plot analysis; conditions: dose 3.2-12.8 µM
[6] = system: HepG2; experiment: Cytotoxicity against human HepG2 cells assessed as reduction in cell viability; assay type: ADME, cell-based
[7] = Cytotoxicity against human PBMC assessed as reduction in cell viability; assay type: ADME, tissue-based
[8] = target: Acetylcholinesterase (Electrophorus electricus) (UniProt O42275); experiment: Mixed type inhibition of electric eel AChE assessed as increase in Km at 3.2 to 12.8 uM using varying levels of acetylthiocholine iodide as substrate by Lineweaver-Burk plot analysis; conditions: dose 3.2-12.8 µM

Acetylcholinesterase, sequence (O42275 whole entry): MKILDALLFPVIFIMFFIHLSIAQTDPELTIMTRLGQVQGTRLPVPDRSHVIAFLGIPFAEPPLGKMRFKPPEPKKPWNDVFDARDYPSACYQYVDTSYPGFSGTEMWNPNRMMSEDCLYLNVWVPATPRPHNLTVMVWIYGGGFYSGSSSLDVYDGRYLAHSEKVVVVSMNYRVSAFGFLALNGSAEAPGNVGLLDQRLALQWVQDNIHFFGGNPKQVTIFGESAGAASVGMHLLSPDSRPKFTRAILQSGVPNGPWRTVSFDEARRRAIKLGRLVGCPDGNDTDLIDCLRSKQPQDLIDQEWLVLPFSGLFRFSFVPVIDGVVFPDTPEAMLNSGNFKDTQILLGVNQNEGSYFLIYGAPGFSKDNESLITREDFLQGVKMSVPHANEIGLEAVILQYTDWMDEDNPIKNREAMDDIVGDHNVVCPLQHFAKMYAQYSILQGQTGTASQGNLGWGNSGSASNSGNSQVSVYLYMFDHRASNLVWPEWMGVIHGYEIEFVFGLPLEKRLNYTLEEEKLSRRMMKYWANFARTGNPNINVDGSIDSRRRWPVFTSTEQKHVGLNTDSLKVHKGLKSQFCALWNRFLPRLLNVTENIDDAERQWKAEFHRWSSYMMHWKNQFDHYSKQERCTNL
Cholinesterase, sequence (P81908 whole entry): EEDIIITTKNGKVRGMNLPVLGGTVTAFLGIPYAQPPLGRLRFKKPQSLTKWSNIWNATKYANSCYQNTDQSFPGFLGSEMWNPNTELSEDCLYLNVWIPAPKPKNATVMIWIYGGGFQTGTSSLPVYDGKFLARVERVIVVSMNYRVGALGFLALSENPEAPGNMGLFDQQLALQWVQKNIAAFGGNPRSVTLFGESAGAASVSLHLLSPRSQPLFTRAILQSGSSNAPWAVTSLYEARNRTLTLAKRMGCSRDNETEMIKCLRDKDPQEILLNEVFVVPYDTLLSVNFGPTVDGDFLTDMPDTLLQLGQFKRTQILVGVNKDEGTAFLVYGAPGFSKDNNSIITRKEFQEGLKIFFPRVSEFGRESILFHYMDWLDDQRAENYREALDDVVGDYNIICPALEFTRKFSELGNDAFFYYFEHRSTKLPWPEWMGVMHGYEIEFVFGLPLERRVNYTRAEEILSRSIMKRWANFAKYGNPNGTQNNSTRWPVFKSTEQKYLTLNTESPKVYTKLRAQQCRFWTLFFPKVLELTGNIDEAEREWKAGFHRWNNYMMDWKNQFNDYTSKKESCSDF
Acetylcholinesterase (Electrophorus electricus), sequence (O42275 24-633 limits assumed): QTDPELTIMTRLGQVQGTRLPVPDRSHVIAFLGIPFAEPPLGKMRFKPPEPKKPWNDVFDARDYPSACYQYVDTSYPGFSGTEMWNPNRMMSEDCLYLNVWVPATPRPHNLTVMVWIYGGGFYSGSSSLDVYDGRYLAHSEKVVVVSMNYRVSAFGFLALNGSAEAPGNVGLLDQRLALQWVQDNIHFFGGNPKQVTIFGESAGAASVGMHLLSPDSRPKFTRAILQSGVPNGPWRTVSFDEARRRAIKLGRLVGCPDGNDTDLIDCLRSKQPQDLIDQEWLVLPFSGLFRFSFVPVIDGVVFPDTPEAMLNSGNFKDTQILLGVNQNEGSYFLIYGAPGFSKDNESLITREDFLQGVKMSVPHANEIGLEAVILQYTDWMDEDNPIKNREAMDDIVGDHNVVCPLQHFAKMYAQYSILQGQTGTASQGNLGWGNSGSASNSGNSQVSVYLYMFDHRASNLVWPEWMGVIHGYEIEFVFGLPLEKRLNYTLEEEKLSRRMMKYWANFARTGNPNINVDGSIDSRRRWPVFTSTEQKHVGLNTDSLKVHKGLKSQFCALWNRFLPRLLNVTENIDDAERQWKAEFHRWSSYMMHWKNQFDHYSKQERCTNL

With `O=C1C[C@@H](c2ccc(O)cc2)Oc2cc(O)ccc21` [LIQUIRTIGENIN] the IC50 [1] was 8.96 µM, the Ratio IC50 [2] was 1.55 and the IC50 [3] was 9.1 µM. It also gave an IC50 [4] of 14 µM.
`CC(C)=CCOc1ccc2c(c1)OC(c1ccc(C)cc1C)CC2=O` (centres undefined) gave an IC50 [1] of 8.26 µM, a Ratio IC50 [2] of 3.64 and an IC50 [3] of 0.94 µM. It also gave an IC50 [4] of 3.42 µM.
`CC(C)=CCOc1cc(O)c2c(c1)OC(c1ccc(C)cc1)CC2=O` (centres undefined) gave an IC50 [1] of 4.36 µM, a Ratio IC50 [2] of 6.54 and an IC50 [3] of 1 µM. It also gave an IC50 [4] of 6.54 µM.
Compound `CC(C)=CCOc1ccc2c(c1)OC(c1ccccc1)CC2=O` (centres undefined) has an IC50 [1] of 6.07 µM, a Ratio IC50 [2] of 1.79 and an IC50 [3] of 5.32 µM. It also gave an IC50 [4] of 9.54 µM.
`CC(C)=CCOc1cc(O)c2c(c1)OC(c1cccc(Cl)c1)CC2=O` (centres undefined) gave an IC50 [1] of 6.06 µM, a Ratio IC50 [2] of 6.89 and an IC50 [3] of 0.99 µM. It also gave an IC50 [4] of 6.82 µM.
Work on `CC(C)=CCOc1ccc2c(c1)OC(c1cccc(Br)c1)CC2=O` (centres undefined) yielded an IC50 [1] of 5.28 µM, a Ratio IC50 [2] of 2.45 and an IC50 [3] of 1.84 µM. The IC50 [4] was 4.5 µM.
For `COc1ccc(C2CC(=O)c3ccc(OCC=C(C)C)cc3O2)c(OC)c1` (centres undefined), the IC50 [1] was 8.18 µM, the Ratio IC50 [2] was 15.3 and the IC50 [3] was 0.37 µM. The IC50 [4] was 5.65 µM.
With `CC(C)=CCOc1ccc2c(c1)OC(c1ccccc1Cl)CC2=O` (centres undefined) the IC50 [1] was 8.02 µM, the Ratio IC50 [2] was 1.69 and the IC50 [3] was 3.17 µM. For the same compound, the IC50 [4] was 5.37 µM.
`CC(C)=CCOc1ccc2c(c1)OC(c1ccc(C)cc1)CC2=O` (centres undefined) showed an IC50 [1] of 4.44 µM, a Ratio IC50 [2] of 3.65 and an IC50 [3] of 1.12 µM. It also gave an IC50 [4] of 4.09 µM.
Work on `CC(C)=CCOc1ccc2c(c1)OC(c1ccccc1F)CC2=O` (centres undefined) yielded an IC50 [1] of 6.36 µM, a Ratio IC50 [2] of 2.85 and an IC50 [3] of 1.92 µM. It also gave an IC50 [4] of 5.47 µM.
Work on `CC(C)=CCOc1cc(O)c2c(c1)OC(c1ccc(Cl)cc1Cl)CC2=O` (centres undefined) yielded an IC50 [1] of 3.34 µM, a Ratio IC50 [2] of 6.67 and an IC50 [3] of 1.04 µM. The IC50 [4] was 6.94 µM.
For `CC(C)=CCOc1ccc2c(c1)OC(c1ccc(F)cc1)CC2=O` (centres undefined), the IC50 [1] was 7.32 µM, the Ratio IC50 [2] was 4.69 and the IC50 [3] was 0.55 µM. It also gave an IC50 [4] of 2.58 µM.
Work on `CC(C)=CCOc1ccc2c(c1)OC(c1cccc(F)c1)CC2=O` (centres undefined) yielded an IC50 [1] of 4.28 µM, a Ratio IC50 [2] of 2.72 and an IC50 [3] of 1.48 µM. For the same compound, the IC50 [4] was 4.02 µM.
Compound `CC(C)=CCOc1ccc2c(c1)OC(c1ccccc1Br)CC2=O` (centres undefined) has an IC50 [1] of 3.18 µM, a Ratio IC50 [2] of 2.49 and an IC50 [3] of 2.02 µM. For the same compound, the IC50 [4] was 5.02 µM.
With `CC(C)=CCOc1cc(O)c2c(c1)OC(c1ccc(F)cc1)CC2=O` (centres undefined) the IC50 [1] was 6.06 µM, the Ratio IC50 [2] was 28.5 and the IC50 [3] was 0.24 µM. For the same compound, the IC50 [4] was 6.84 µM.
With `CC(C)=CCOc1ccc2c(c1)OC(c1ccc(O)cc1)CC2=O` (centres undefined) the IC50 [1] was 6.67 µM, the Ratio IC50 [2] was 1.62 and the IC50 [3] was 3.09 µM. The IC50 [4] was 5.02 µM.
`CC(C)=CCOc1cc(O)c2c(c1)OC(c1ccccc1)CC2=O` (centres undefined) showed an IC50 [1] of 7.32 µM, a Ratio IC50 [2] of 2.15 and an IC50 [3] of 3.04 µM. For the same compound, the IC50 [4] was 6.54 µM.
With `COc1ccc(C2CC(=O)c3c(O)cc(OCC=C(C)C)cc3O2)c(OC)c1` (centres undefined) the inhibition [5] was “Active”, the IC50 [1] was 2.32 µM and the IC50 [6] was greater than 100 µM. The Ratio IC50 [2] was 60.7, the IC50 [3] was 0.09 µM and the IC50 [7] was greater than 100 µM. For the same compound, the IC50 [4] was 5.46 µM and the inhibition [8] was “Active”.
In the case of `COc1ccc(C2CC(=O)c3ccc(OCC=C(C)C)cc3O2)cc1` (centres undefined), the IC50 [1] is reported as 10.2 µM, the Ratio IC50 [2] is reported as 7.21 and the IC50 [3] is reported as 0.63 µM. For the same compound, the IC50 [4] was 4.54 µM.
In the case of `Cc1c(C)c2c(c(C)c1O)CCC(C)(C(=O)O)O2` (centres undefined) [TROLOX], the IC50 [1] is reported as 6.12 µM.
`CC(C)=CCOc1cc(O)c2c(c1)OC(c1ccccc1Cl)CC2=O` (centres undefined) showed an IC50 [1] of 4.27 µM, a Ratio IC50 [2] of 3.52 and an IC50 [3] of 2.14 µM. The IC50 [4] was 7.54 µM.
`COc1ccc(C2CC(=O)c3c(O)cc(OCC=C(C)C)cc3O2)cc1` (centres undefined) showed an IC50 [1] of 5.08 µM, a Ratio IC50 [2] of 21.4 and an IC50 [3] of 0.27 µM. The IC50 [4] was 5.77 µM.
In the case of `CC(C)=CCOc1ccc2c(c1)OC(c1ccc(Cl)cc1)CC2=O` (centres undefined), the IC50 [1] is reported as 6.97 µM, the Ratio IC50 [2] is reported as 1.99 and the IC50 [3] is reported as 2.12 µM. It also gave an IC50 [4] of 4.22 µM.
`CC(C)=CCOc1cc(O)c2c(c1)OC(c1ccccc1F)CC2=O` (centres undefined) showed an IC50 [1] of 5.3 µM, a Ratio IC50 [2] of 5.8 and an IC50 [3] of 1.27 µM. The IC50 [4] was 7.37 µM.
Work on `CC(C)=CCOc1cc(O)c2c(c1)OC(c1cccc(F)c1)CC2=O` (centres undefined) yielded an IC50 [1] of 7.24 µM, a Ratio IC50 [2] of 5.53 and an IC50 [3] of 0.92 µM. It also gave an IC50 [4] of 5.09 µM.
`CC(C)=CCOc1cc(O)c2c(c1)OC(c1cccc(Br)c1)CC2=O` (centres undefined) showed an IC50 [1] of 4.04 µM, a Ratio IC50 [2] of 6.37 and an IC50 [3] of 0.82 µM. The IC50 [4] was 5.22 µM.
`CC(C)=CCOc1cc(O)c2c(c1)OC(c1ccc(C)cc1C)CC2=O` (centres undefined) gave an IC50 [1] of 6.38 µM, a Ratio IC50 [2] of 5.44 and an IC50 [3] of 0.72 µM. The IC50 [4] was 3.92 µM.
In the case of `CC(C)=CCOc1ccc2c(c1)OC(c1cccc(Cl)c1)CC2=O` (centres undefined), the IC50 [1] is reported as 6.3 µM, the Ratio IC50 [2] is reported as 2.39 and the IC50 [3] is reported as 1.5 µM. For the same compound, the IC50 [4] was 3.59 µM.
Work on `CC(C)=CCOc1cc(O)c2c(c1)OC(c1ccc(O)cc1)CC2=O` (centres undefined) yielded an IC50 [1] of 5.34 µM, a Ratio IC50 [2] of 2.27 and an IC50 [3] of 2.37 µM. For the same compound, the IC50 [4] was 5.38 µM.
With `CC(C)=CCOc1cc(O)c2c(c1)OC(c1ccc(Br)cc1)CC2=O` (centres undefined) the IC50 [1] was 2.77 µM, the IC50 [6] was greater than 80 µM and the Ratio IC50 [2] was 54.9. The IC50 [3] was 0.11 µM, the IC50 [7] was greater than 100 µM and the IC50 [4] was 6.04 µM.
For `CC(C)=CCOc1cc(O)c2c(c1)OC(c1ccc(Cl)cc1)CC2=O` (centres undefined), the IC50 [1] was 7.02 µM, the Ratio IC50 [2] was 6.04 and the IC50 [3] was 1.17 µM. The IC50 [4] was 7.07 µM.
Compound `CC(C)=CCOc1cc(O)c2c(c1)OC(c1ccccc1Br)CC2=O` (centres undefined) has an IC50 [1] of 3.82 µM, a Ratio IC50 [2] of 3.28 and an IC50 [3] of 1.18 µM. It also gave an IC50 [4] of 3.87 µM.
With `CC(C)=CCOc1ccc2c(c1)OC(c1ccc(Br)cc1)CC2=O` (centres undefined) the IC50 [1] was 8.12 µM, the Ratio IC50 [2] was 5.03 and the IC50 [3] was 0.77 µM. For the same compound, the IC50 [4] was 3.87 µM.
With `CC(C)=CCOc1ccc2c(c1)OC(c1ccc(Cl)cc1Cl)CC2=O` (centres undefined) the IC50 [1] was 5.26 µM, the Ratio IC50 [2] was 2.61 and the IC50 [3] was 1.33 µM. For the same compound, the IC50 [4] was 3.47 µM.
